Test results: the kinase profiling compilation of Christmann-Franck et al. (2016)

Legend:
Assay in all cases: radiometric filter-binding kinase assay
[1] = system: AKT1 (human), P31749 [S473D]
BTK (human) = BTK (human) (UniProt Q06187); conditions: compound 1000.0 µM
CSNK2A1 (human) = CSNK2A1 (human) (UniProt P68400)
CaMK1 (human) = CaMK1 (human) (UniProt Q14012)
DAPK1 (human) = DAPK1 (human) (UniProt P53355)
DYRK1A (human) = DYRK1A (human) (UniProt Q13627)
DYRK2 (human) = DYRK2 (human) (UniProt Q92630)
Chain of DYRK2 (human) (Q92630 whole entry, looked up): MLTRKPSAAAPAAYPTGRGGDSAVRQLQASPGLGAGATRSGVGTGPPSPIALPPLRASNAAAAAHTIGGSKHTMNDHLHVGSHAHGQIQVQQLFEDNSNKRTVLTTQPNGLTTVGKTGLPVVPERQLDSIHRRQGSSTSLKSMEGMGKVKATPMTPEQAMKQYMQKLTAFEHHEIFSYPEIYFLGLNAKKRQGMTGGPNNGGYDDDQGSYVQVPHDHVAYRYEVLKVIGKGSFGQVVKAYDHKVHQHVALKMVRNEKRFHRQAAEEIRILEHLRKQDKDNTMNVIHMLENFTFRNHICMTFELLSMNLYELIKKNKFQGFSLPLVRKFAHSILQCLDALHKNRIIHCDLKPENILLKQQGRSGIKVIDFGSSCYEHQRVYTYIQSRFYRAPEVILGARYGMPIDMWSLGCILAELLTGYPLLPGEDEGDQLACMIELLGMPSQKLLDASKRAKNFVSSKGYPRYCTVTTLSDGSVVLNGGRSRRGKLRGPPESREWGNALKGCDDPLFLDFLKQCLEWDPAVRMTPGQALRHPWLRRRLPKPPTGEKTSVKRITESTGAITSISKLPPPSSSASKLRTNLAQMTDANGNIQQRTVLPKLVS

DYRK3 (human) = DYRK3 (human) (UniProt O43781)
EEF2K (human) = EEF2K (human) (UniProt O00418)
EPHA2 (human) = EPHA2 (human) (UniProt P29317)
EPHB1 (human) = EPHB1 (human) (UniProt P54762)
Chain of EPHB1 (human) (P54762 whole entry, looked up): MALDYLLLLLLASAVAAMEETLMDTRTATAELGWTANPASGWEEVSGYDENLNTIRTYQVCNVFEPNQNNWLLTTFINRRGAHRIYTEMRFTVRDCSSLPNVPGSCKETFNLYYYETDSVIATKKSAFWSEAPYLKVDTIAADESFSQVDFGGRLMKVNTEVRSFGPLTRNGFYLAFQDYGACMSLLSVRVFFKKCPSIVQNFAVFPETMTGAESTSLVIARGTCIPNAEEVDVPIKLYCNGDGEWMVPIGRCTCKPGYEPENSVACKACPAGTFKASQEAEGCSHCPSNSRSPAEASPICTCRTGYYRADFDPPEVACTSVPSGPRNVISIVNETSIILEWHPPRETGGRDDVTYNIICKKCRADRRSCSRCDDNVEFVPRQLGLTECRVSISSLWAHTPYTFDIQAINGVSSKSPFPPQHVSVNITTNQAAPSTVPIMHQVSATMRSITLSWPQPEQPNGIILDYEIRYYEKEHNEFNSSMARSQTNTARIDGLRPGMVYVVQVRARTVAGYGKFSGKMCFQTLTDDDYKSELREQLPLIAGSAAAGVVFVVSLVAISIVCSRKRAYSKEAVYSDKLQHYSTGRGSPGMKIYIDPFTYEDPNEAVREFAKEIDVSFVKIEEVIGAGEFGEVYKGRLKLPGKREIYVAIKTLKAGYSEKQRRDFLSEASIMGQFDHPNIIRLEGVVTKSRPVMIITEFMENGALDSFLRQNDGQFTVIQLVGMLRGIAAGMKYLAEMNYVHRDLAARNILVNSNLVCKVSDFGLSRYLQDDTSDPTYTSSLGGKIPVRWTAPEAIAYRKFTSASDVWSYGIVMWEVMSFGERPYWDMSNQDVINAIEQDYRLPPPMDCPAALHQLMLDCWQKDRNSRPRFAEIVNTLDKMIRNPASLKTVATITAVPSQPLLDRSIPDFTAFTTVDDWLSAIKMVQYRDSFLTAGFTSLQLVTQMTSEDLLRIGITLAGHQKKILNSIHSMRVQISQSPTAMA

EPHB3 (human) = EPHB3 (human) (UniProt P54753)
ERBB4 (human) = ERBB4 (human) (UniProt Q15303)
HIPK1 (human) = HIPK1 (human) (UniProt Q86Z02); conditions: compound 100.0 µM
HIPK2 (human) = HIPK2 (human) (UniProt Q9H2X6)
HIPK3 (human) = HIPK3 (human) (UniProt Q9H422)
Chain of HIPK3 (human) (Q9H422 whole entry, looked up): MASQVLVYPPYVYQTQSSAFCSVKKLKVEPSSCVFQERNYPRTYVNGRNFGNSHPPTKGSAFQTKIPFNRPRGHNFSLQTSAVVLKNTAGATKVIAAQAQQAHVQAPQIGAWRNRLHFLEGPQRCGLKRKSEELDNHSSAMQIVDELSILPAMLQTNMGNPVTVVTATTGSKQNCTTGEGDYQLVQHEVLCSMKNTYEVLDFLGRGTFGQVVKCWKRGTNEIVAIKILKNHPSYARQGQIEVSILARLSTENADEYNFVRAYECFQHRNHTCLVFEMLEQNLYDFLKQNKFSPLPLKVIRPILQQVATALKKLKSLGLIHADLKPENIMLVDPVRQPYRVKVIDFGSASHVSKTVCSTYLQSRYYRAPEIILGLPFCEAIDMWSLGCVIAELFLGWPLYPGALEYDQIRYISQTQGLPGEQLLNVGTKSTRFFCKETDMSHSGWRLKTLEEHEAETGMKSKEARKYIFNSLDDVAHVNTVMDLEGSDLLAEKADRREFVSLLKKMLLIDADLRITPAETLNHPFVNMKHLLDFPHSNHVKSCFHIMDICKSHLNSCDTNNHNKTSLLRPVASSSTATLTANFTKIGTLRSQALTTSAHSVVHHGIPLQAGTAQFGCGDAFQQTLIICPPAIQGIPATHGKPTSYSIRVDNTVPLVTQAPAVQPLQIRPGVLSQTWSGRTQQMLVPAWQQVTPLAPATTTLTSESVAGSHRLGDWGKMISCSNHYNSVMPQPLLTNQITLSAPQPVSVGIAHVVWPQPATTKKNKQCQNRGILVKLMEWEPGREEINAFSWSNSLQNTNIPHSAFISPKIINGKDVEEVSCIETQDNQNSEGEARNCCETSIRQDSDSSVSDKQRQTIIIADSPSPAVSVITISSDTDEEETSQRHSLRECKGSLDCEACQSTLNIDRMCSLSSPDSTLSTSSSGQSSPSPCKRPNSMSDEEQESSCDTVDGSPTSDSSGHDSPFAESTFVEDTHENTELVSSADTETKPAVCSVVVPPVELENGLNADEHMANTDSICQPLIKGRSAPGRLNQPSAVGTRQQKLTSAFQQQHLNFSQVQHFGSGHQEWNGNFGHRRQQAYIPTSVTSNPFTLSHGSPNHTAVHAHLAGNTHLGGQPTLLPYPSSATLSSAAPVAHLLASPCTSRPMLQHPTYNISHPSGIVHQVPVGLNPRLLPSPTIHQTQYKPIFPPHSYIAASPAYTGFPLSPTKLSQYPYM

IKBKE (human) = IKBKE (human) (UniProt Q14164)
Chain of IKBKE (human) (Q14164 whole entry, looked up): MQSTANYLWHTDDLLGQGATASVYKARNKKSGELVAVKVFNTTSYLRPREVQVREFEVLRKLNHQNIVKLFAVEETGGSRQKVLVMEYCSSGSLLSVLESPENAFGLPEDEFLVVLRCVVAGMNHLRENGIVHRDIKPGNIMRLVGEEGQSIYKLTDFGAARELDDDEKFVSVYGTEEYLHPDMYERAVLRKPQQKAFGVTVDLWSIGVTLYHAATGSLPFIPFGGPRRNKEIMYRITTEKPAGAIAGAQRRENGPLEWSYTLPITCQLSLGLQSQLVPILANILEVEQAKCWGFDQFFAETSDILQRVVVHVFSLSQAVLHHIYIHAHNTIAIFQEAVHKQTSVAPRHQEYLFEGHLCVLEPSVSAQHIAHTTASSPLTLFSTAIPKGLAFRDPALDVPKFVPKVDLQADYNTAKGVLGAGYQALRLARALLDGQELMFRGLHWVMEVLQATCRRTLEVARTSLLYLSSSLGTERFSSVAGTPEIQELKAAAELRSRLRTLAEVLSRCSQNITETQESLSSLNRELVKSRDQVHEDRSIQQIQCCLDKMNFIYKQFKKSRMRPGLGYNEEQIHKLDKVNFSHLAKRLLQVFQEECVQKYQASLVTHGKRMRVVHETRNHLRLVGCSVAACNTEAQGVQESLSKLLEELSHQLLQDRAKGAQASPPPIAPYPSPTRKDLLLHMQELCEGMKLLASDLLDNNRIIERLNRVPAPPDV

LCK (mouse) = conditions: accession and sequence are those of the human protein
MAP2K6 (human) = MAP2K6 (human) (UniProt P52564)
MAP3K9 (human) = MAP3K9 (human) (UniProt P80192)
MAPK11 (human) = MAPK11 (human) (UniProt Q15759)
MAPK13 (human) = MAPK13 (human) (UniProt O15264)
MAPK14 (human) = MAPK14 (human) (UniProt Q16539)
MAPKAPK5 (human) = MAPKAPK5 (human) (UniProt Q8IW41)
MARK1 (human) = MARK1 (human) (UniProt Q9P0L2)
MARK3 (human) = MARK3 (human) (UniProt P27448)
MST4 (human) = MST4 (human) (UniProt Q9P289)
NEK6 (human) = NEK6 (human) (UniProt Q9HC98); conditions: compound 10.0 µM
NUAK1 (human) = NUAK1 (human) (UniProt O60285)
PAK4 (human) = PAK4 (human) (UniProt O96013)
PAK6 (human) = PAK6 (human) (UniProt Q9NQU5)
Chain of PAK6 (human) (Q9NQU5 whole entry, looked up): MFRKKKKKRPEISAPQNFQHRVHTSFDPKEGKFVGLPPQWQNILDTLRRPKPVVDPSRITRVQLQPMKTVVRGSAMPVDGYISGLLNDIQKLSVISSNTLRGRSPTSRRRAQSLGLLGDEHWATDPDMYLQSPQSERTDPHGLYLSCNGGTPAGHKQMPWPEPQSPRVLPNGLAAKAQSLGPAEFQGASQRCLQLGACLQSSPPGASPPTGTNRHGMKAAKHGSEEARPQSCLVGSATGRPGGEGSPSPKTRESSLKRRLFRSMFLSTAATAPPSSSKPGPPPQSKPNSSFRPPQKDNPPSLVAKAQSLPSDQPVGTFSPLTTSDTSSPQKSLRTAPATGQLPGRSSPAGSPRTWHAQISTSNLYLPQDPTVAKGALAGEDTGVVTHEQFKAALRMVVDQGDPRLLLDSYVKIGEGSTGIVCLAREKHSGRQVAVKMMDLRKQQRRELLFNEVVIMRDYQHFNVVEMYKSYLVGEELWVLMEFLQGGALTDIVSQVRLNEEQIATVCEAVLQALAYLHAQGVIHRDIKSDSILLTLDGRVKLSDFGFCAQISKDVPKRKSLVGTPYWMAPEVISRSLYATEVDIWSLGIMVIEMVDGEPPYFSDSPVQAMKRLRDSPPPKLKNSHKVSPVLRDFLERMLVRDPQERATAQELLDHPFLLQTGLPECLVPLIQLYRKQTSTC

PAK7 (human) = PAK7 (human) (UniProt Q9P286)
Chain of PAK7 (human) (Q9P286 whole entry, looked up): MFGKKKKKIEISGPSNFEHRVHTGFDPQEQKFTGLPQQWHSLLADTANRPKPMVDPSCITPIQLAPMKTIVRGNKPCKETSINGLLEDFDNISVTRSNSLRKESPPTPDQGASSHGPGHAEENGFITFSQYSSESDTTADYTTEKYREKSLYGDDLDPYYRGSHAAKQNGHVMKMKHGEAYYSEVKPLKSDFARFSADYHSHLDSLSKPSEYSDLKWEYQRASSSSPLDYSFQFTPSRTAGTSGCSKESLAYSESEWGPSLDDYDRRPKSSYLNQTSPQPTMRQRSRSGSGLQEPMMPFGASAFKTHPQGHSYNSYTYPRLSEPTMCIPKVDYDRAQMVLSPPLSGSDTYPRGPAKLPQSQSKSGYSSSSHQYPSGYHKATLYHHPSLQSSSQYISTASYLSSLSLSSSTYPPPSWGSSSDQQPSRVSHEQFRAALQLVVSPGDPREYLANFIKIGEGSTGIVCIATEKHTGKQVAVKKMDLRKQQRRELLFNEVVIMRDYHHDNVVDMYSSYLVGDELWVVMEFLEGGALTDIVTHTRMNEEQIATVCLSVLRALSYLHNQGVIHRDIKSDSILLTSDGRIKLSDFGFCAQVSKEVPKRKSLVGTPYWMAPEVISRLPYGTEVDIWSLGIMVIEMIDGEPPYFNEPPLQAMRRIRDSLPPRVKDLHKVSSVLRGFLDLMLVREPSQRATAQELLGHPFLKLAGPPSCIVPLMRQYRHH

PRKCZ (human) = PRKCZ (human) (UniProt Q05513)
ROCK2 (rat) = conditions: accession and sequence are those of the human protein
RPS6KA5 KD1 KD2 (human) = RPS6KA5 KD1 KD2 (human) (UniProt O75582)
TAOK1 (human) = TAOK1 (human) (UniProt Q7L7X3)

## COC(=O)/C=C/C(=O)OC
[1]; compound 10.0 µM
  residual activity: 93%
[1]; compound 100.0 µM
  residual activity: 94%
[1]; compound 1000.0 µM
  residual activity: 103%
BTK (human)
  residual activity: 135%
CSNK2A1 (human); compound 10.0 µM
  residual activity: 98%
CSNK2A1 (human); compound 100.0 µM
  residual activity: 95%
CSNK2A1 (human); compound 1000.0 µM
  residual activity: 91%
CaMK1 (human); compound 10.0 µM
  residual activity: 88%
CaMK1 (human); compound 100.0 µM
  residual activity: 96%
CaMK1 (human); compound 1000.0 µM
  residual activity: 99%
DAPK1 (human); compound 10.0 µM
  residual activity: 99%
DAPK1 (human); compound 100.0 µM
  residual activity: 102%
DAPK1 (human); compound 1000.0 µM
  residual activity: 104%
DYRK1A (human); compound 10.0 µM
  residual activity: 105%
DYRK1A (human); compound 100.0 µM
  residual activity: 109%
DYRK1A (human); compound 1000.0 µM
  residual activity: 113%
DYRK2 (human); compound 10.0 µM
  residual activity: 91%
DYRK2 (human); compound 100.0 µM
  residual activity: 94%
DYRK2 (human); compound 1000.0 µM
  residual activity: 103%
DYRK3 (human); compound 10.0 µM
  residual activity: 105%
DYRK3 (human); compound 1000.0 µM
  residual activity: 106%
EEF2K (human); compound 100.0 µM
  residual activity: 106%
EEF2K (human); compound 1000.0 µM
  residual activity: 111%
EPHA2 (human); compound 10.0 µM
  residual activity: 106%
EPHA2 (human); compound 100.0 µM
  residual activity: 124%
EPHA2 (human); compound 1000.0 µM
  residual activity: 129%
EPHB1 (human); compound 10.0 µM
  residual activity: 101%
EPHB1 (human); compound 100.0 µM
  residual activity: 103%
EPHB1 (human); compound 1000.0 µM
  residual activity: 104%
EPHB3 (human); compound 10.0 µM
  residual activity: 97%
EPHB3 (human); compound 100.0 µM
  residual activity: 105%
EPHB3 (human); compound 1000.0 µM
  residual activity: 114%
ERBB4 (human); compound 10.0 µM
  residual activity: 110%
ERBB4 (human); compound 1000.0 µM
  residual activity: 108%
HIPK1 (human)
  residual activity: 95%
HIPK2 (human); compound 10.0 µM
  residual activity: 98%
HIPK2 (human); compound 100.0 µM
  residual activity: 101%
HIPK2 (human); compound 1000.0 µM
  residual activity: 94%
HIPK3 (human); compound 10.0 µM
  residual activity: 81%
HIPK3 (human); compound 100.0 µM
  residual activity: 94%
HIPK3 (human); compound 1000.0 µM
  residual activity: 86%
IKBKE (human); compound 10.0 µM
  residual activity: 80%
IKBKE (human); compound 100.0 µM
  residual activity: 96%
IKBKE (human); compound 1000.0 µM
  residual activity: 93%
LCK (mouse); compound 10.0 µM
  residual activity: 74%
LCK (mouse); compound 100.0 µM
  residual activity: 72%
LCK (mouse); compound 1000.0 µM
  residual activity: 84%
MAP2K6 (human); compound 10.0 µM
  residual activity: 92%
MAP2K6 (human); compound 100.0 µM
  residual activity: 88%
MAP3K9 (human); compound 10.0 µM
  residual activity: 87%
MAP3K9 (human); compound 100.0 µM
  residual activity: 112%
MAP3K9 (human); compound 1000.0 µM
  residual activity: 135%
MAPK11 (human); compound 10.0 µM
  residual activity: 111%
MAPK11 (human); compound 1000.0 µM
  residual activity: 104%
MAPK13 (human); compound 10.0 µM
  residual activity: 92%
MAPK13 (human); compound 100.0 µM
  residual activity: 102%
MAPK14 (human); compound 10.0 µM
  residual activity: 90%
MAPK14 (human); compound 100.0 µM
  residual activity: 99%
MAPK14 (human); compound 1000.0 µM
  residual activity: 106%
MAPKAPK5 (human); compound 10.0 µM
  residual activity: 96%
MAPKAPK5 (human); compound 100.0 µM
  residual activity: 92%
MAPKAPK5 (human); compound 1000.0 µM
  residual activity: 94%
MARK1 (human); compound 10.0 µM
  residual activity: 98%
MARK1 (human); compound 100.0 µM
  residual activity: 115%
MARK1 (human); compound 1000.0 µM
  residual activity: 108%
MARK3 (human); compound 100.0 µM
  residual activity: 108%
MARK3 (human); compound 1000.0 µM
  residual activity: 132%
MST4 (human); compound 10.0 µM
  residual activity: 95%
MST4 (human); compound 100.0 µM
  residual activity: 106%
NEK6 (human)
  residual activity: 103%
NUAK1 (human); compound 10.0 µM
  residual activity: 97%
NUAK1 (human); compound 100.0 µM
  residual activity: 104%
NUAK1 (human); compound 1000.0 µM
  residual activity: 101%
PAK4 (human); compound 10.0 µM
  residual activity: 76%
PAK4 (human); compound 100.0 µM
  residual activity: 88%
PAK4 (human); compound 1000.0 µM
  residual activity: 95%
PAK6 (human); compound 10.0 µM
  residual activity: 90%
PAK6 (human); compound 100.0 µM
  residual activity: 98%
PAK6 (human); compound 1000.0 µM
  residual activity: 103%
PAK7 (human); compound 10.0 µM
  residual activity: 87%
PAK7 (human); compound 100.0 µM
  residual activity: 125%
PAK7 (human); compound 1000.0 µM
  residual activity: 93%
PRKCZ (human); compound 10.0 µM
  residual activity: 89%
PRKCZ (human); compound 100.0 µM
  residual activity: 103%
ROCK2 (rat); compound 10.0 µM
  residual activity: 81%
ROCK2 (rat); compound 100.0 µM
  residual activity: 89%
ROCK2 (rat); compound 1000.0 µM
  residual activity: 98%
RPS6KA5 KD1 KD2 (human); compound 10.0 µM
  residual activity: 107%
RPS6KA5 KD1 KD2 (human); compound 100.0 µM
  residual activity: 105%
TAOK1 (human); compound 10.0 µM
  residual activity: 91%
TAOK1 (human); compound 100.0 µM
  residual activity: 109%
TAOK1 (human); compound 1000.0 µM
  residual activity: 123%
